We go through two molecules from patent US20080161404A1 (ASTRAZENECA AB, priority 2005, published 2008).

In data set [1] the test system is serum PSA levels. Kind of data set: Change in serum PSA levels in M0/M1 prostate cancer patients (Example 1). Type of data set: in vivo, human. How it is done: Patients had histologically or cytologically confirmed M0 (T3 or T4) or M1 prostate cancer and a PSA level ≧20 ng/mL.
Data set [2] is described as follows: Clinical pharmacokinetics of (R)-bicalutamide (Css, t1/2) in prostate cancer patients given bicalutamide 300-600 mg once daily (Example 1). Type of data set: in vivo, human. The settings on record: for Steady state plasma conc. geometric mean: (R)-bicalutamide. On the procedure: Plasma samples were stored at −20° C. until analysis. […] Quantification of the enantiomers was achieved using ultra-violet absorbance.
Method: Assays were performed using 0.5 ml plasma aliquots. […] A further control compound (internal standard) was added to each sample, along with 1.5 ml of pH 7 0.05M phosphate buffer (Electronic Instruments Ltd.) and 6 mls of ethyl acetate. The samples were mixed and then centrifuged and a 5 ml aliquot of the ethyl acetate layer (upper layer) was removed and evaporated to dryness in a polypropylene tube. The residue was re-dissolved in 400 μl of water:acetonitrile (70:30 v/v).
The fraction was evaporated to dryness and reconstituted in 400 μl of an HPLC eluent; 0.02 M pH 7 phosphate buffer; acetonitrile (85:15 v/v). 200 μl of the reconstituted fraction was then injected onto the chiral chromatographic system.

For data set [3] the following is noted: cited from earlier work.
Data set [4] concerns advanced prostate cancer (M0 or M1). Kind of data set: Survival (Kaplan-Meier time to death) versus castration in patients with advanced prostate cancer (Example 1). The settings on record: 450-600 mg.
Method: Tolerability was similarly assessed at 450 mg/day (3 tablets) and 600 mg/day (4 tablets).
After objective disease progression, patients were followed up every 3 months for survival and/or adverse event data.
Results are presented as for both the overall patient population and also by disease stage (M0 or M1).

Values joined by “and” are separate entries in the source; they are usually repeats but may differ in a detail not shown here. Equal entries are not always repeated. Where two headings read alike, the source gives them in different places.

For the molecule “4′-cyano-α′,α′,α′-trifluoro-3-(4-fluorophenylsulphonyl)-2-hydroxy-2-methylpropiono-m-toluidide [Bicalutamide]”, the “percentage decrease in PSA” value in data set [1] (Week 12, bicalutamide 300 mg) is 93%; in data set [1] (Week 12, bicalutamide 450 mg), 95%; in data set [1] (Week 12, bicalutamide 600 mg), 96%. Further, the “percentage reduction in geometric mean PSA compared with castration group” value in data set [1] (baseline to Week 4) is on record as “greater percentage reductions in geometric mean PSA values”. The “Steady state plasma conc. geometric mean” value in data set [2] (300 mg once daily, 18 patients) stood at 35 µg/mL; in data set [2] (450 mg once daily, 82 patients), 31 µg/mL; in data set [2] (600 mg once daily, 34 patients), 36 µg/mL. Further, the “plasma concentration of (R)-bicalutamide higher than with bicalutamide 150 mg” value in data set [2] (doses ≥300 mg vs 150 mg (21.6 μg/mL)) is “approximately 50%”. For the same molecule, in data set [2] (doses ≥300 mg vs 200 mg (28.9 μg/mL)), the “plasma concentration of (R)-bicalutamide higher than with bicalutamide 200 mg” value was “approximately 15%”. The “mean steady state plasma concentration of R-bicalutamide” value in data set [2] (patients, conventional tablets, doses of 300 mg/day and above (300-600 mg)) was 31 to 36 µg/mL; in data set [3] (patients, 150 mg daily), 21.6 µg/mL and 21 µg/mL. The “t1/2 of (R)-bicalutamide” value in data set [3] (bicalutamide doses of 10-200 mg) is 150 to 213 h. Besides, the “plasma concentration of (R)-bicalutamide (Css)” value in data set [3] (patients, bicalutamide 200 mg) was 28900 ng/mL. Besides, the “events (deaths), share of patients” value in data set [4] (M0 patients, 28/74) stood at 37.8%; in data set [4] (M1 patients, 43/63), 68.3%; in data set [4] (all patients, median 5 years follow up, 71/137) it was 51.8%.
Regarding `C[C@](O)(CS(=O)(=O)c1ccc(F)cc1)C(=O)Nc1ccc(C#N)c(C(F)(F)F)c1` [R-Bicalutamide], the “share of the total circulating enantiomers at steady state” value in data set [3] (steady state) is reported as “approximately 99%”.
